Data: ChEMBL document CHEMBL4342403, “New evolutions in the BACE1 inhibitor field from 2014 to 2018” (Bioorg Med Chem Lett, 2019)

How the values were obtained:
Beta-secretase 1 [1] = target: T1, Beta-secretase 1 (Homo sapiens, UniProt P56817); assay: Inhibition of BACE1 in human SK-N-BE(2) cells expressing human APP695 assessed as reduction in amyloidbeta (1 to 42 residues) level incubated for 18 hrs by sandwich ELISA; assay type: cell-based
Canis familiaris [2] = assay: In vivo inhibition of BACE1 in Beagle dog assessed as reduction in amyloidbeta (1 to 42 residues) at 0.16 mg/kg, po measured at 8 hrs post dose relative to baseline; assay type: functional; details: Canis lupus familiaris
Canis familiaris [3] = assay: In vivo inhibition of BACE1 in Beagle dog assessed as reduction in amyloidbeta (1 to 42 residues) at 0.31 mg/kg, po measured at 8 hrs post dose relative to baseline; assay type: functional; details: Canis lupus familiaris
Beta-secretase 2 [4] = target: T2, Beta-secretase 2 (Homo sapiens, UniProt Q9Y5Z0); assay: Inhibition of BACE2 (unknown origin) incubated for 450 mins using APP swedish mutant as substrate by FRET assay
T2 sequence (Q9Y5Z0 whole entry): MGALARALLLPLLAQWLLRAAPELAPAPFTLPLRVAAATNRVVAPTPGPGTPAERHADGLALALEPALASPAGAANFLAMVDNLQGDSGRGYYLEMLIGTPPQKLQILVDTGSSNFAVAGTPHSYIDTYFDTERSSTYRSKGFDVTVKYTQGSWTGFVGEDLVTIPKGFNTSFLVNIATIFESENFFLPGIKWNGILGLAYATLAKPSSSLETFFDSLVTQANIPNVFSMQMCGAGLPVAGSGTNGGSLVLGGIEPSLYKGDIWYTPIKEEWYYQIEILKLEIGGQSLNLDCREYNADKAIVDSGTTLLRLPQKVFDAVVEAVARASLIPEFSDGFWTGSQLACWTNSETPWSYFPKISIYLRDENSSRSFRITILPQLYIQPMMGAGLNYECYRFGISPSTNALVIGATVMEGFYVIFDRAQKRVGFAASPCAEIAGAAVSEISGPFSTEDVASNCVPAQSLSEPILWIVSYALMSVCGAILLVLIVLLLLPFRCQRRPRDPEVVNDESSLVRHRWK

Canis familiaris [5] = assay: In vivo inhibition of BACE1 in Beagle dog assessed as reduction in amyloidbeta (1 to 42 residues) at 1.25 mg/kg, po measured at 8 hrs post dose relative to baseline; assay type: functional; details: Canis lupus familiaris
Beta-secretase 1 [6] = target: T1, Beta-secretase 1; assay: Inhibition of BACE1 (unknown origin) incubated for 120 mins using APP swedish mutant as substrate by FRET assay
Homo sapiens [7] = assay: In vivo inhibition of BACE1 in human assessed as reduction in amyloidbeta40 level in CSF at 85 mg, qd administered for 3 months relative to control; assay type: functional
Homo sapiens [8] = assay: In vivo inhibition of BACE1 in human assessed as reduction in amyloidbeta(1 to 42 residues) level in CSF at 50 mg, qd administered up to 14 days relative to control; assay type: functional
[9] = Dissociation constant, pKa of the compound; assay type: physicochemical
Homo sapiens [10] = assay: In vivo inhibition of BACE1 in human assessed as reduction in amyloidbeta(1 to 42 residues) level in CSF at 275 mg, qd administered up to 14 days relative to control; assay type: functional
Homo sapiens [11] = assay: In vivo inhibition of BACE1 in human assessed as reduction in amyloidbeta(1 to 42 residues) level in CSF at 125 mg, qd administered up to 14 days relative to control; assay type: functional
Beta-secretase 2 [12] = target: T2, Beta-secretase 2; assay: Inhibition of human BACE2 expressed in HEK293 cells incubated for 16 to 24 hrs by FRET assay; assay type: cell-based
Beta-secretase 1 [13] = target: T1, Beta-secretase 1; assay: Inhibition of human BACE1 expressed in HEK293 cells incubated for 16 to 24 hrs by FRET assay; assay type: cell-based
Beta-secretase 1 [14] = target: T1, Beta-secretase 1; assay: Inhibition of BACE1 in human SH-SY5Y cells transfected with APP695 assessed as reduction in amyloidbeta (1 to 40 residues) incubated for 24 hrs by sandwich ELlSA; assay type: cell-based
Homo sapiens [15] = assay: In vivo inhibition of BACE1 in human assessed as reduction in amyloidbeta40 level in CSF at 40 mg administered once daily for 7 days relative to baseline; assay type: functional
Homo sapiens [16] = assay: In vivo inhibition of BACE1 in human assessed as reduction in amyloidbeta40 level in CSF at 12 mg administered once daily for 7 days relative to baseline; assay type: functional
Homo sapiens [17] = assay: In vivo inhibition of BACE1 in human assessed as reduction in amyloidbeta40 level in CSF at 60 mg administered once daily for 7 days relative to baseline; assay type: functional
Homo sapiens [18] = organism: Homo sapiens; assay: Selectivity ratio of IC50 for human BACE2 to IC50 for human BACE1
Beta-secretase 1 [19] = target: T1, Beta-secretase 1; assay: Inhibition of BACE1 (unknown origin)
Beta-secretase 2 [20] = target: T2, Beta-secretase 2; assay: Inhibition of BACE2 (unknown origin)
Canis familiaris [21] = assay: In vivo inhibition of BACE1 in dog assessed as reduction in amyloidbeta level in CSF at 1 mg/kg, po measured at 48 hrs post dose relative to control; assay type: functional; details: Canis lupus familiaris
Beta-secretase 1 [22] = target: T1, Beta-secretase 1; assay: Inhibition of BACE1 (unknown origin) by cell-based assay
Canis familiaris [23] = assay: In vivo inhibition of BACE1 in dog assessed as reduction in amyloidbeta level in CSF at 1 mg/kg, po measured at 24 hrs post dose relative to control; assay type: functional; details: Canis lupus familiaris
Homo sapiens [24] = assay: In vivo inhibition of BACE1 in human assessed as reduction in amyloidbeta40 level in CSF at 50 mg administered once daily after 14 days relative to baseline; assay type: functional
Homo sapiens [25] = assay: In vivo inhibition of BACE1 in human assessed as reduction in amyloidbeta40 level in CSF at 90 mg administered once daily after 14 days relative to baseline; assay type: functional
Homo sapiens [26] = assay: In vivo inhibition of BACE1 in human assessed as reduction in amyloidbeta40 level in CSF at 30 mg administered once daily after 14 days relative to baseline; assay type: functional
[27] = Brain to plasma partition coefficient, Kp of the compound in Sprague Dawley rat at 30 mg/kg, po; assay type: ADME, organism-based
[28] = Brain to plasma partition coefficient, Kp of the compound in Sprague Dawley rat at 10 mg/kg, po; assay type: ADME, organism-based
Rattus norvegicus [29] = assay: In vivo inhibition of BACE1 in Sprague Dawley rat assessed as reduction in amyloidbeta 40 level in brain at 10 mg/kg, po measured at 3 hrs post dose by ELISA relative to control; assay type: functional
Rattus norvegicus [30] = assay: In vivo inhibition of BACE1 in Sprague Dawley rat assessed as reduction in amyloidbeta 40 level in brain at 30 mg/kg, po measured at 3 hrs post dose by ELISA relative to control; assay type: functional

T1 sequence (P56817 whole entry, the tested form may be a part): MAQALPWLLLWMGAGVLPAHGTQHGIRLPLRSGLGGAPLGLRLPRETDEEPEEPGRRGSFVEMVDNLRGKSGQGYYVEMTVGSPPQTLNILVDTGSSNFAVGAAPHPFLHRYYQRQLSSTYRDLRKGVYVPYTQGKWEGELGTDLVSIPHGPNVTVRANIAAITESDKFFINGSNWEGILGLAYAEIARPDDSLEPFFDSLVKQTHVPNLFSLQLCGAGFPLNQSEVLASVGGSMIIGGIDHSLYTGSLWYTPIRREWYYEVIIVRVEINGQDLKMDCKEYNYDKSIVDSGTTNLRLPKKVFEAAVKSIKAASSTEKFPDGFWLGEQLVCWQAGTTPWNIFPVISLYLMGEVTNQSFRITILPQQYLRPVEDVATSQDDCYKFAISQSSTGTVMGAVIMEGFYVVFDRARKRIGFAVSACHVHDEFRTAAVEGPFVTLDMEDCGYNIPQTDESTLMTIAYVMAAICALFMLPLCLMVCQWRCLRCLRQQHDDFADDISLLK

`C[C@H]1OC[C@]2(c3cc(NC(=O)c4ccc(C#N)cn4)ccc3F)N=C(N)[C@](C)(C#N)C[C@H]12` showed an IC50 (Beta-secretase 1 [1]) of 0.00126 µM, an inhibition in vivo at 0.16 mg/kg (Canis familiaris [2]) of 42% and an inhibition in vivo at 0.31 mg/kg (Canis familiaris [3]) of 54%. The IC50 (Beta-secretase 2 [4]) was 0.0145 µM, the inhibition in vivo at 1.25 mg/kg (Canis familiaris [5]) was 80% and the IC50 (Beta-secretase 1 [6]) was 0.00186 µM.

With `C[C@@]1(c2nc(NC(=O)c3ncc(C(F)(F)F)cc3Cl)ccc2F)CO[C@@](C)(C(F)(F)F)C(N)=N1` the “inhibition (INH)” value (Homo sapiens [7]) was >90%.

In the case of `C[C@H]1C[C@H]2CSC(N)=N[C@@]2(c2nc(NC(=O)c3ccc(OC(F)F)cn3)cs2)CO1`, the “inhibition (INH)” value (Homo sapiens [8]) is reported as 69%, the pKa [9] is reported as 6.9 and the “inhibition (INH)” value (Homo sapiens [10]) is reported as 93%. The “inhibition (INH)” value (Homo sapiens [11]) was 84%.

Compound `CC(F)(F)[C@H]1OC[C@]2(c3cc(NC(=O)c4ccc(C(F)(F)F)cn4)ccc3F)N=C(N)SC[C@H]12` has an IC50 (Beta-secretase 2 [12]) of 0.602 µM, an IC50 (Beta-secretase 1 [13]) of 0.0119 µM and an IC50 (Beta-secretase 1 [14]) of 0.00103 µM.

For `CN1C(N)=N[C@](C)(c2cc(NC(=O)c3ccc(F)cn3)ccc2F)CS1(=O)=O` [VERUBECESTAT], the “inhibition (INH)” value (Homo sapiens [15]) was 79%, the “inhibition (INH)” value (Homo sapiens [16]) was 57% and the “inhibition (INH)” value (Homo sapiens [17]) was 84%.

For `CC(F)(F)[C@H]1OC[C@]2(c3cc(NC(=O)c4cnc(-n5cncn5)cn4)ccc3F)N=C(N)SC[C@H]12`, the Ratio IC50 (Homo sapiens [18]) was > 400.

In the case of `NC1=N[C@@]2(c3cc(NC(=O)c4ccc(C(F)(F)F)cn4)ccc3F)CO[C@H](C(F)(F)F)[C@H]2CO1`, the IC50 (Beta-secretase 1 [19]) is reported as 0.0119 µM, the IC50 (Beta-secretase 2 [20]) is reported as 0.602 µM and the inhibition in vivo at 1 mg/kg (Canis familiaris [21]) is reported as 55%. The IC50 (Beta-secretase 1 [22]) was 0.00103 µM and the inhibition in vivo at 1 mg/kg (Canis familiaris [23]) was 65%.

In the case of `C[C@@]1(c2cc(NC(=O)c3ccc(C#N)cn3)ccc2F)C=CSC(N)=N1` [ATABECESTAT], the “inhibition (INH)” value (Homo sapiens [24]) is reported as >80%, the “inhibition (INH)” value (Homo sapiens [25]) is reported as >80% and the “inhibition (INH)” value (Homo sapiens [26]) is reported as >80%.

Compound `Cc1cc(C#N)cnc1C(=O)Nc1ccc(F)c([C@@]2(C)N=C(N)[C@@](C)(F)CC2(F)F)c1` has a Kp [27] of 0.5, a Kp [28] of 0.5 and an inhibition in vivo at 10 mg/kg (Rattus norvegicus [29]) of 66%. It also gave an inhibition in vivo at 30 mg/kg (Rattus norvegicus [30]) of 61%.
